Data on two molecules can be found in PubChem BioAssay AID2060353 (Molecular Pharmacology Branch, DTP, NCI, 2025).

A word on the IC50: it is the concentration at which inhibition is half-maximal. Broadly, the viability, T/C is the result in the treated group divided by that in the control group, in per cent.

The subject of this assay is 521955-158-R2-J5-PDC spheroids with stroma, growth inhibition. The assay is described as follows: Anticancer human tumor 521955-158-R2-J5-PDC patient-derived pancreatic carcinoma cell line growth inhibition [TAK]. The settings on record: for viability, T/C: stronger effect = lower value. In a few lines:
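Tumor cells were grown as spheroids with HUVEC and hMSC (60:25:15) and treated with targeted agents combined with TAK-243 or ipatasertib. Drugs were tested in half-log steps down from near the clinical Cmax, or from 10 microM where Cmax was unknown.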

Several values for one entry are separate records, joined by “and”; a condition that tells them apart may be missing. Equal values may be shown once.
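Also: spheroids exposed to drugs for seven days before readout.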
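For viability, T/C in this document: 100% = DMSO vehicle control viability.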

For the molecule `CC(C)CC(NC(=O)CNC(=O)c1cc(Cl)ccc1Cl)B1OC(=O)CC(CC(=O)O)(C(=O)O)O1` (configuration not stated) + CC(C)NCC(C(=O)N1CCN(c2ncnc3c2C(C)CC3O)CC1)c1ccc(Cl)cc1, the IC50 is 39 nM (curve of first compound, second compound 0.3 µM); 30 nM (curve of first compound, second compound 0.949 µM); 26.8 nM (curve of first compound, second compound 3 µM); 25.7 nM (curve of first compound, second compound 9.49 µM); 15.2 nM (curve of first compound, second compound 30 µM). Moreover, the viability, T/C (second compound 0.3 µM, first compound 0.000316 µM) was 129%; the viability, T/C (second compound 0.3 µM, first compound 0.001 µM) is 114%; the viability, T/C (second compound 0.3 µM, first compound 0.00316 µM) is 104%; the viability, T/C (second compound 0.3 µM, first compound 0.01 µM) is 116%; the viability, T/C (second compound 0.3 µM, first compound 0.0316 µM) was 59%; the viability, T/C (second compound 0.3 µM, first compound 0.1 µM) is 8.82%. Moreover, the viability, T/C by setting is: (second compound 0.949 µM, first compound 0.000316 µM) 85.2%; (second compound 0.949 µM, first compound 0.001 µM) 98.6%; (second compound 0.949 µM, first compound 0.00316 µM) 87.6%; (second compound 0.949 µM, first compound 0.01 µM) 94.2%; (second compound 0.949 µM, first compound 0.0316 µM) 48.1%; (second compound 0.949 µM, first compound 0.1 µM) 6.65%. Further, the viability, T/C was 77.8% (second compound 3 µM, first compound 0.000316 µM); 78% (second compound 3 µM, first compound 0.001 µM); 87% (second compound 3 µM, first compound 0.00316 µM); 89.6% (second compound 3 µM, first compound 0.01 µM); 44.4% (second compound 3 µM, first compound 0.0316 µM); 6.08% (second compound 3 µM, first compound 0.1 µM). The viability, T/C is 123% (second compound 9.49 µM, first compound 0.000316 µM); 103% (second compound 9.49 µM, first compound 0.001 µM); 115% (second compound 9.49 µM, first compound 0.00316 µM); 122% (second compound 9.49 µM, first compound 0.01 µM); 35.7% (second compound 9.49 µM, first compound 0.0316 µM); 4.11% (second compound 9.49 µM, first compound 0.1 µM). For the same molecule, the viability, T/C was 69.3% (second compound 30 µM, first compound 0.000316 µM); 69.1% (second compound 30 µM, first compound 0.001 µM); 72.4% (second compound 30 µM, first compound 0.00316 µM); 66.4% (second compound 30 µM, first compound 0.01 µM); 21.3% (second compound 30 µM, first compound 0.0316 µM); 2.31% (second compound 30 µM, first compound 0.1 µM).

On to `CC(=O)Nc1cccc(-n2c(=O)n(C3CC3)c(=O)c3c(Nc4ccc(I)cc4F)n(C)c(=O)c(C)c32)c1`, for which the viability, T/C is 104% and 87% (compound 94.9 pM); 79.1% and 65.4% (compound 0.0003 µM); 52% and 51.3% (compound 0.000949 µM); 48.2% and 48.1% (compound 0.003 µM); 38.6% and 39.5% (compound 0.00949 µM); 27.5% and 24.4% (compound 0.03 µM). For the same molecule, under “curve of compound”, the IC50 is 1.87 nM and 1.69 nM.
